Data: publication PMC8533949, “Biocatalytic Production of Aldehydes: Exploring the Potential of Lathyrus cicera Amine Oxidase” (Biomolecules, 2021)

Test system: T1, Lathyrus cicera amine oxidase (LCAO)
T1 construct: copper/TPQ enzyme
Experiment: coupled peroxidase assay (AAP/DCHBS, […] nm), initial rates
Format: biochemical
Details: pH 7, 20 mM phosphate, 25 °C, air O2

Row | Compound | Km
1 | NCCCN1CCOCC1 [15a] | 17000 µM
2 | CN(C)CCN [18a] | 230 µM
3 | COc1ccc(CCN)cc1OC [5a] | 1000 µM
4 | NCCc1ccc(O)cc1 [1a] | 600 µM
5 | NCCN1CCCCC1 [11a] | 420 µM
6 | NCCc1ccc2c(c1)OCO2 [8a] | 3830 µM
7 | NCCc1ccc(Cl)cc1 [10a] | 3380 µM
8 | NCCC1CCCCC1 [13a] | 1440 µM
9 | NCCC1=CCCCC1 [14a] | 1900 µM
10 | CN(C)CCCN [19a] | 8800 µM
11 | NCCCn1ccnc1 [16a] | 610 µM
12 | COc1ccc(CCN)cc1O [3a] | 1580 µM
13 | COc1cccc(CCN)c1 [7a] | 470 µM
14 | COc1ccc(CCN)cc1 [6a] | 5370 µM
15 | NCCc1ccccc1 [2a] | 1200 µM
16 | NCCCN1CCCC1 [17a] | 2300 µM
17 | COc1cc(CCN)ccc1O [4a] | 1310 µM
18 | NCCN1CCOCC1 [12a] | 6460 µM
